In patent US20240317706A1, “COMPOUNDS THAT MEDIATE PROTEIN DEGRADATION AND METHODS OF USE THEREOF” (Monte Rosa Therapeutics, Inc., priority 2021, published 2024):

What was measured:
CDK2 = target: T1, CDK2 (Homo sapiens, UniProt P24941); experiment: HiBiT assay (CDK2 degradation); type: cell-based; conditions: HEK293 clonal line with CRISPR KI HiBiT tag on CDK2, 24 hours, HiBiT Lysis Reagent
T1 construct: HEK293 clonal lines with CRISPR KI HiBiT tag on CDK2 proteins; host or cells: HEK293 clonal line, CRISPR knock-in HiBiT-CDK2, stably expressing LgBiT
Description: HEK293 clonal lines with CRISPR KI HiBiT tag on CDK2 proteins and stably expressing LgBiT protein were obtained from Promega (Madison, WI). Cells were plated at 5000 cells per well using Multiflo (BioTek) in 384-well white solid bottom plates (Corning, 3570BC) in 25 ul volume in DMEM media (DMEM, high glucose, HEPES, no phenol red (ThermoFisher Scientific, 21063029)) containing 10% FBS (Corning, 35-075-CV), 1% Penicillin/Streptomycin (ThermoFisher Scientific, 15140-122). Cells were incubated for 16 hours at 37° C., 5% CO2. 75 nL of a compound at 30 μM were dosed into the plate using an Echo® 650 liquid handler (Labcyte). Cells were incubated at 37° C., 5% CO2 for 24 hours. 5 ul of HiBiT Lysis Reagent (Promega, N3030) is added using Combi Multidrop (ThermoFisher Scientific), plates are incubated for 15′ at 37° C., 5% CO2 and then signal was read on a Pherastar FSX using “LUM plus” optic module.
Analysis was performed in Scinamic (Scinamic, Cambridge, MA). Luminescence response (R) was calculated by the formula: response=100*(S−N)/(P−N) where S is the signal of the well, N and P the mean negative and positive control values respectively of the same plate. The luminescence response was then fitted in Scinamic using a 3-parameter agonist logistic fit (hillslope=1, EC50>0, top/bottom unconstrained).

CRBN-DDB1 = CRBN-DDB1 (Homo sapiens, UniProt Q96SW2); experiment: Compound binding to CRBN by HTRF assay; conditions: CRBN-DDB1 2.5 nM, Cy5-Thalidomide 100 nM, 30 min; Ki from geometric mean IC50 by Cheng-Prustoff transformation
How it was run: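 HTRF displacement of Cy5-thalidomide probe (100 nM) from His-CRBN-DDB1 (2.5 nM) with anti-His terbium cryptate, in HEPES/NaCl/TCEP/EDTA/Tween20 buffer. 10-point 1:3 compound series, 30 min at ambient temperature; signal normalised to DMSO and lenalidomide controls, IC50 fitted and Ki derived by Cheng-Prusoff.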

Sequence of CRBN-DDB1 (Q96SW2 whole entry): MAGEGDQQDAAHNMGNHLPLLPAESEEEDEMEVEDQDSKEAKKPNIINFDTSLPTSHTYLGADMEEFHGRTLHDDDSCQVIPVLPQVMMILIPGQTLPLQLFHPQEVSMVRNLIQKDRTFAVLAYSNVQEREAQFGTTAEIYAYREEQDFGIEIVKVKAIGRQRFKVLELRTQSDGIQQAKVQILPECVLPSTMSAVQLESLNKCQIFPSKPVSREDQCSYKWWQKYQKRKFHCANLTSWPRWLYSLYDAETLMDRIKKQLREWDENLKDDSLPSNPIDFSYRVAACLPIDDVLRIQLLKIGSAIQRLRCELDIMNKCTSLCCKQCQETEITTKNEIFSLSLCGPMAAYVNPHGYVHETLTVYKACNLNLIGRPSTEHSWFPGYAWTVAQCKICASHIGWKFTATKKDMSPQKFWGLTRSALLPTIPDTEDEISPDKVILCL
Sequence of CRBN-DDB1 (Q16531 whole entry partner): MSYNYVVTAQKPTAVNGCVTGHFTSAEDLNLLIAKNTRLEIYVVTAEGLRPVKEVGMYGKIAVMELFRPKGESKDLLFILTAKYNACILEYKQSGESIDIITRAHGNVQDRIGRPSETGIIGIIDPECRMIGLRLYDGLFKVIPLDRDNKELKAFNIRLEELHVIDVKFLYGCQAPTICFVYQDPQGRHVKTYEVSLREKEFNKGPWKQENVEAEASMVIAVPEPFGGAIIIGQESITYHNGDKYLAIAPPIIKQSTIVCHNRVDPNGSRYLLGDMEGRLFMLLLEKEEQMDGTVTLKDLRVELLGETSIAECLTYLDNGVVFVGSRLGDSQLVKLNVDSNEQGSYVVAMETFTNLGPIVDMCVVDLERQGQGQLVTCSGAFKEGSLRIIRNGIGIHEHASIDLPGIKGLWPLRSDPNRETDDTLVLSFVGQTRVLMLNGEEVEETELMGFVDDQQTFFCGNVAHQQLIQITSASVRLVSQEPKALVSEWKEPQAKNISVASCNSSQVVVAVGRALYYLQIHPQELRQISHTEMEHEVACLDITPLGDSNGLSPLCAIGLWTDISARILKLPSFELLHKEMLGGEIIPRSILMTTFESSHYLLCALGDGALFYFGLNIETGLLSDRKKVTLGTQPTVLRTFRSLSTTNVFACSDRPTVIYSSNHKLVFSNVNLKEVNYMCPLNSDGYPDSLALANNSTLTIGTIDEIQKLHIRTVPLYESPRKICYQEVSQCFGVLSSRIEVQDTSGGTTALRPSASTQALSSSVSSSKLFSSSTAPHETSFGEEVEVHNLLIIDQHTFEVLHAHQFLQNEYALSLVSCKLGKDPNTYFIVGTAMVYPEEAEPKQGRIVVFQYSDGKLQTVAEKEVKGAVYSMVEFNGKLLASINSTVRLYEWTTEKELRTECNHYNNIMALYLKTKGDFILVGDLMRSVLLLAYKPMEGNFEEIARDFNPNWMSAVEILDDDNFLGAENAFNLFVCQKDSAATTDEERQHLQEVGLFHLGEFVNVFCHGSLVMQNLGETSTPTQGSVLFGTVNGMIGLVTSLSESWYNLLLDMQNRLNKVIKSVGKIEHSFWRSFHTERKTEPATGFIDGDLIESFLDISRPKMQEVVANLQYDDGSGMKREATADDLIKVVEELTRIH

Row | Structure (SMILES) | Dmax (CDK2) | Ki (CRBN-DDB1)
1 | O=C1CCC(N2Cc3ccc(CNC(=O)OC4CCOC4)cc3C2=O)C(=O)N1 (stereo not drawn) [Compound 13, oxolan-3-yl N-{[2-(2,6-dioxopiperidin-3-yl)-3-oxo-2,3-dihydro-1H-isoindol-5-yl]methyl}carbamate] | ≤ 10% | 0.1 to 1 µM
2 | O=C1CCC(N2Cc3ccc(CNC(=O)OC4CC4)cc3C2=O)C(=O)N1 (stereo not drawn) [Compound 14, cyclopropyl N-{[2-(2,6-dioxopiperidin-3-yl)-3-oxo-2,3-dihydro-1H-isoindol-5-yl]methyl}carbamate] | 10 to 50% | 0.1 to 1 µM
3 | CC1(C)CCC(OC(=O)NCc2ccc3c(c2)CN(C2CCC(=O)NC2=O)C3=O)CC1 (stereo not drawn) [Compound 15, 4,4-dimethylcyclohexyl N-{[2-(2,6-dioxopiperidin-3-yl)-1-oxo-2,3-dihydro-1H-isoindol-5-yl]methyl}carbamate] | 50 to 80% | ≤ 0.1 µM
4 | CC1(COC(=O)NCc2ccc3c(c2)C(=O)N(C2CCC(=O)NC2=O)C3)COC1 (stereo not drawn) [Compound 16, (3-methyloxetan-3-yl)methyl N-{[2-(2,6-dioxopiperidin-3-yl)-3-oxo-2,3-dihydro-1H-isoindol-5-yl]methyl}carbamate] | ≤ 10% | 0.1 to 1 µM
5 | O=C1CCC(N2Cc3ccc(CNC(=O)OC4CCc5ccccc5C4)cc3C2=O)C(=O)N1 (stereo not drawn) [Compound 17, 1,2,3,4-tetrahydronaphthalen-2-yl N-{[2-(2,6-dioxopiperidin-3-yl)-3-oxo-2,3-dihydro-1H-isoindol-5-yl]methyl}carbamate] | 10 to 50% | 0.1 to 1 µM
6 | O=C1CCC(N2Cc3ccc(CNC(=O)OCC4CCc5ccccc54)cc3C2=O)C(=O)N1 (stereo not drawn) [Compound 18, (2,3-dihydro-1H-inden-1-yl)methyl N-{[2-(2,6-dioxopiperidin-3-yl)-3-oxo-2,3-dihydro-1H-isoindol-5-yl]methyl}carbamate] | 10 to 50% | 0.1 to 1 µM
7 | O=C1CCC(N2Cc3ccc(CNC(=O)OCC4OCCc5ccccc54)cc3C2=O)C(=O)N1 (stereo not drawn) [Compound 19, (3,4-dihydro-1H-2-benzopyran-1-yl)methyl N-{[2-(2,6-dioxopiperidin-3-yl)-3-oxo-2,3-dihydro-1H-isoindol-5-yl]methyl}carbamate] | ≤ 10% | ≤ 0.1 µM
8 | CC(C)C1CC(COC(=O)NCc2ccc3c(c2)C(=O)N(C2CCC(=O)NC2=O)C3)C1 (stereo not drawn) [Compound 20, [3-(propan-2-yl)cyclobutyl]methyl N-{[2-(2,6-dioxopiperidin-3-yl)-3-oxo-2,3-dihydro-1H-isoindol-5-yl]methyl}carbamate] | 10 to 50% | ≤ 0.1 µM
9 | O=C1CCC(N2Cc3ccc(CNC(=O)OCCOC4CC4)cc3C2=O)C(=O)N1 (stereo not drawn) [Compound 21, 2-cyclopropoxyethyl N-{[2-(2,6-dioxopiperidin-3-yl)-3-oxo-2,3-dihydro-1H-isoindol-5-yl]methyl}carbamate] | ≤ 10% | 0.1 to 1 µM
10 | CC1(COC(=O)NCc2ccc3c(c2)C(=O)N(C2CCC(=O)NC2=O)C3)CCCO1 (stereo not drawn) [Compound 22, (2-methyloxolan-2-yl)methyl N-{[2-(2,6-dioxopiperidin-3-yl)-3-oxo-2,3-dihydro-1H-isoindol-5-yl]methyl}carbamate] | ≤ 10% | 0.1 to 1 µM
11 | CO[C@H]1C[C@@H](OC(=O)NCc2ccc3c(c2)C(=O)N(C2CCC(=O)NC2=O)C3)C1 (stereo partly drawn) [Compound 23, (1s,3s)-3-methoxycyclobutyl N-{[2-(2,6-dioxopiperidin-3-yl)-3-oxo-2,3-dihydro-1H-isoindol-5-yl]methyl}carbamate] | ≤ 10% | 0.1 to 1 µM
12 | CC1(C)CCC1OC(=O)NCc1ccc2c(c1)C(=O)N(C1CCC(=O)NC1=O)C2 (stereo not drawn) [Compound 24, 2,2-dimethylcyclobutyl N-{[2-(2,6-dioxopiperidin-3-yl)-3-oxo-2,3-dihydro-1H-isoindol-5-yl]methyl}carbamate] | 10 to 50% | 0.1 to 1 µM
13 | C[C@H]1C[C@@H]1COC(=O)NCc1ccc2c(c1)C(=O)N(C1CCC(=O)NC1=O)C2 (stereo partly drawn) [Compound 25, [(1S,2S)-2-methylcyclopropyl]methyl N-{[2-(2,6-dioxopiperidin-3-yl)-3-oxo-2,3-dihydro-1H-isoindol-5-yl]methyl}carbamate] | ≤ 10% | 0.1 to 1 µM
14 | C[C@H](OC(=O)NCc1ccc2c(c1)C(=O)N(C1CCC(=O)NC1=O)C2)C1CC1 (stereo partly drawn) [Compound 28, (1S)-1-cyclopropylethyl N-{[2-(2,6-dioxopiperidin-3-yl)-3-oxo-2,3-dihydro-1H-isoindol-5-yl]methyl}carbamate] | 10 to 50% | 0.1 to 1 µM
15 | O=C1CCC(N2Cc3ccc(CNC(=O)OC[C@H]4CCCO4)cc3C2=O)C(=O)N1 (stereo partly drawn) [Compound 29, [(2R)-oxolan-2-yl]methyl N-{[2-(2,6-dioxopiperidin-3-yl)-3-oxo-2,3-dihydro-1H-isoindol-5-yl]methyl}carbamate] | ≤ 10% | ≤ 0.1 µM
16 | C[C@H]1COC[C@@H]1OC(=O)NCc1ccc2c(c1)C(=O)N(C1CCC(=O)NC1=O)C2 (stereo partly drawn) [Compound 30, (3R,4S)-4-methyloxolan-3-yl N-{[2-(2,6-dioxopiperidin-3-yl)-3-oxo-2,3-dihydro-1H-isoindol-5-yl]methyl}carbamate] | ≤ 10% | 0.1 to 1 µM
17 | CC1(C)CC(OC(=O)NCc2ccc3c(c2)C(=O)N(C2CCC(=O)NC2=O)C3)C1 (stereo not drawn) [Compound 31, 3,3-dimethylcyclobutyl N-{[2-(2,6-dioxopiperidin-3-yl)-3-oxo-2,3-dihydro-1H-isoindol-5-yl]methyl}carbamate] | 10 to 50% | 0.1 to 1 µM
18 | C[C@H]1CCC[C@@H]1OC(=O)NCc1ccc2c(c1)C(=O)N(C1CCC(=O)NC1=O)C2 (stereo partly drawn) [Compound 32, (1S,2S)-2-methylcyclopentyl N-{[2-(2,6-dioxopiperidin-3-yl)-3-oxo-2,3-dihydro-1H-isoindol-5-yl]methyl}carbamate] | 10 to 50% | 0.1 to 1 µM
19 | O=C1CCC(N2Cc3ccc(CNC(=O)OCCOC4COC4)cc3C2=O)C(=O)N1 (stereo not drawn) [Compound 33, 2-(oxetan-3-yloxy)ethyl N-{[2-(2,6-dioxopiperidin-3-yl)-3-oxo-2,3-dihydro-1H-isoindol-5-yl]methyl}carbamate] | 10 to 50% | 0.1 to 1 µM
20 | CN1CCC(COC(=O)NCc2ccc3c(c2)C(=O)N(C2CCC(=O)NC2=O)C3)CC1 (stereo not drawn) [Compound 34, (1-methylpiperidin-4-yl)methyl N-{[2-(2,6-dioxopiperidin-3-yl)-3-oxo-2,3-dihydro-1H-isoindol-5-yl]methyl}carbamate] | ≤ 10% | 0.1 to 1 µM
21 | O=C1CCC(N2Cc3ccc(CNC(=O)OC4Cc5ccccc54)cc3C2=O)C(=O)N1 (stereo not drawn) [Compound 35, bicyclo[4.2.0]octa-1,3,5-trien-7-yl N-{[2-(2,6-dioxopiperidin-3-yl)-3-oxo-2,3-dihydro-1H-isoindol-5-yl]methyl}carbamate] | 10 to 50% | ≤ 0.1 µM
22 | CN1C(=O)CCC1COC(=O)NCc1ccc2c(c1)C(=O)N(C1CCC(=O)NC1=O)C2 (stereo not drawn) [Compound 36, (1-methyl-5-oxopyrrolidin-2-yl)methyl N-{[2-(2,6-dioxopiperidin-3-yl)-3-oxo-2,3-dihydro-1H-isoindol-5-yl]methyl}carbamate] | ≤ 10% | ≤ 0.1 µM
23 | O=C1CCC(N2Cc3ccc(CNC(=O)OCC4(c5ccccc5)CC(F)(F)C4)cc3C2=O)C(=O)N1 (stereo not drawn) [Compound 38, (3,3-difluoro-1-phenylcyclobutyl)methyl N-{[2-(2,6-dioxopiperidin-3-yl)-3-oxo-2,3-dihydro-1H-isoindol-5-yl]methyl}carbamate] | 10 to 50% | ≤ 0.1 µM
24 | CN1CCC(COC(=O)NCc2ccc3c(c2)C(=O)N(C2CCC(=O)NC2=O)C3)C1 (stereo not drawn) [Compound 39, (1-methylpyrrolidin-3-yl)methyl N-{[2-(2,6-dioxopiperidin-3-yl)-3-oxo-2,3-dihydro-1H-isoindol-5-yl]methyl}carbamate] | ≤ 10% | 0.1 to 1 µM
25 | CN1CCC(OC(=O)NCc2ccc3c(c2)C(=O)N(C2CCC(=O)NC2=O)C3)C1 (stereo not drawn) [Compound 40, 1-methylpyrrolidin-3-yl N-{[2-(2,6-dioxopiperidin-3-yl)-3-oxo-2,3-dihydro-1H-isoindol-5-yl]methyl}carbamate] | ≤ 10% | 0.1 to 1 µM
26 | O=C1CCC(N2Cc3ccc(CNC(=O)OCC4CCCCO4)cc3C2=O)C(=O)N1 (stereo not drawn) [Compound 41, (oxan-2-yl)methyl N-{[2-(2,6-dioxopiperidin-3-yl)-3-oxo-2,3-dihydro-1H-isoindol-5-yl]methyl}carbamate] | 10 to 50% | 0.1 to 1 µM
27 | O=C1CCC(N2Cc3ccc(CNC(=O)OCC4CCOC4)cc3C2=O)C(=O)N1 (stereo not drawn) [Compound 43, (oxolan-3-yl)methyl N-{[2-(2,6-dioxopiperidin-3-yl)-3-oxo-2,3-dihydro-1H-isoindol-5-yl]methyl}carbamate] | 10 to 50% | ≤ 0.1 µM
